Measured values: PMC11666850, “Development and evaluation of deuterated [^18F]JHU94620 isotopologues for the non-invasive assessment of the cannabinoid type 2 receptor in brain” (EJNMMI Radiopharmacy and Chemistry, 2024)
“And” between values parts separate entries of the source, which are not always exact repeats. Equal entries are not always repeated.

Target: T1, CB2R (Rattus norvegicus, UniProt Q9QZN9)
T1 construct: from tissue; host or cells: rat spleen: cryosections in vitro, and spleen of living Wistar rats in PET
T1 sequence (Q9QZN9 1-360): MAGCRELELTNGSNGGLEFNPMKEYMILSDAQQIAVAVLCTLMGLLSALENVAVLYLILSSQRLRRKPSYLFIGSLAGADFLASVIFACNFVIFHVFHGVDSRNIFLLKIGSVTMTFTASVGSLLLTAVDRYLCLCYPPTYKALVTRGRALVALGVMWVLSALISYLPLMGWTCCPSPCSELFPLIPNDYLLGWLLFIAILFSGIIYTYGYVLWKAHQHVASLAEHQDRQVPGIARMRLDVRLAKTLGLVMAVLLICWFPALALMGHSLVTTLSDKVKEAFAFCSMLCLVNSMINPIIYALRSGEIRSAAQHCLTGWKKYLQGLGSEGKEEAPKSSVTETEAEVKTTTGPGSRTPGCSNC
Test: Quantitative autoradiography, rat spleen cryosections
Assay type: binding
Description: For quantitative autoradiography in different species, 10 µm cryosections from mouse, rat and piglet spleen were thawed, dried, and pre-incubated with incubation buffer for 10 min, dried under an airstream. Subsequently, the incubation buffer containing [^18F]JHU94620-d8 (59–137 GBq µmol^−1, 1.7–3.6 nM) was added alone or together with indicated concentrations of the reference compound. Additionally, to assess the non-specific binding of [^18F]JHU94620-d8 to cryosections GW405833 was added instead of the reference compound. After 90 min, cryosections were washed two times for 2 min with ice-cold 50 mM Tris HCl, pH7.4 and 10 s in ddH2O and subsequently dried under an airstream. For the calculation of the radioactivity concentration, 5 µl of five serial 1:2 dilutions of the incubation buffer with [^18F]JHU94620-d8 were air-dried on a microscopic slide. For binding studies in rat spleen cryosections by autoradiography with HLM-derived radiometabolites of [^18F]JHU94620-d8 obtained from the radiometabolite assay, the samples were added to the incubation buffer to a final activity concentration of 0.2 MBq mL^−1 and protocol was followed as described above. Subsequently, the slides were exposed to a phosphor imager plate. After scanning at high sensitivity and a 12.5 µm resolution with a CR35 Bio image plate scanner (Raytest Isotopenmessgeräte GmbH, Straubenhardt, Germany). The analyses of the autoradiographic images were performed with the AIDA 5.1 software (Elysia-Raytest, Angleur, Belgium) resulting in a resolution of 12.617 pixel × 12.616 pixel per µm^2 (1 voxel = 1592 µm^3 ≙ 1.59 10^–3 µg wet tissue) and inhibition curves were created with GraphPad Prism 9.5.1 (GraphPad Inc., La Jolla, CA).
The KD values were calculated with GraphPad Prism according to the modified Cheng-Prusoff method for homologous competitive binding studies, where the KD = Ki = IC50—[radioligand] and the Bmax = specific binding / [radioligand] / ((KD + [radioligand])) (Motulsky and Neubig [2000]), assuming a total protein content of 8.2% (1.3 10^–4 µg protein per voxel) in the spleen (Zaia et al. [2000]) or by determining the protein concentration of the cell membrane lysates using a BCA assay (Thermo Scientific, Braunschweig, Germany). The fractional occupancy defined as occupied binding sites per total binding sites is used to describe the binding fraction specifically bound to CB2R compared to unspecific binding, where [L] is the concentration of the ligand at the start of incubation.

[2H]C([2H])([18F])C([2H])([2H])C([2H])([2H])C([2H])([2H])n1c(C)c(C)s/c1=N\C(=O)C1C(C)(C)C1(C)C [[^18F]JHU94620-d8]
Kd (KD values determined by autoradiography, rat and mouse spleen (range over both species)): 0.74 to 1.98 nM | Kd (KD, rat spleen cryosection, homologous displacement autoradiography, n = 3): 0.74 nM | specific binding to CB2R (rat spleen cryosections, blocking with 10 µM GW405833 or self-blocking): 48 ± 6% and 48% | Bmax (spleen of rats): 0.08 pmol mg^−1 protein
